Ends that are not written are not given here.
Experiments:
[1] = test system: Salmonella typhi; assay: Synergy study (checkerboard titration) with hen white lysozyme; format: cell-based; details: for Lowest [CP] showing synergy: cationic peptide concentration, combined with lysozyme; for Lowest [Lyso] showing synergy: lysozyme concentration, combined with the peptide
Method: (§1) The biological activity of the peptides can be determined by standard methods known to those of skill in the art, such as Aminimal inhibitory concentration (MIC)≅ assay described in the present examples, whereby the lowest concentration at which no change in OD is observed for a given period of time is recorded as MIC. Alternatively, Afractional inhibitory concentration (FIC)≅ is also useful for determination of synergy between the peptides of the invention, or the peptides in combination with known antibiotics. FICs are performed by checkerboard titrations of peptides in one dimension of a microtiter plate, and of antibiotics in the other dimension, for example. The FIC is calculated by looking at the impact of one antibiotic on the MIC of the other and vice versa. […] Preferably, an FIC of less than 0.5 is obtained for synergism. As used herein, FIC can be determined as follows: [formula]

[2] = test system: E. coli; assay: as above; format: cell-based; details: for Lowest [CP] showing synergy: cationic peptide concentration, combined with lysozyme; for Lowest [Lyso] showing synergy: lysozyme concentration, combined with the peptide
Method: as §1

[3] = test system: P. aeruginosa (H103); assay: as above; format: cell-based; details: for Lowest [CP] showing synergy: cationic peptide concentration, combined with lysozyme; for Lowest [Lyso] showing synergy: lysozyme concentration, combined with the peptide
Method: as §1

[4] = test system: S. aureus; assay: MIC, broth microdilution assay in polypropylene microtiter trays; format: cell-based; details: average of three separate experiments
Summary of the method: (§2)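 MIC values record the lowest peptide concentration at which turbidity (OD) remained unchanged throughout the assigned period.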

[5] = test system: S. epidermis; assay: as above; format: cell-based; details: average of three separate experiments
Summary of the method: as §2

[6] = test system: P. aeruginosa; assay: as above; format: cell-based; details: average of three separate experiments
Summary of the method: as §2

[7] = test system: S. aureus K147; assay: as above; format: cell-based; details: average of three separate experiments
Summary of the method: as §2

[8] = test system: E. coli; assay: as above; format: cell-based; details: average of three separate experiments
Summary of the method: as §2

[9] = test system: Pseudomonas aeruginosa strain M2; assay: Protection of neutropenic CD-1 mice challenged with Pseudomonas aeruginosa; format: in vivo; design: Survival post bacterial challenge, surviving mice: reference not given here; details: for Survival (%) post bacterial challenge: PBS 8
Method: CD-1 mice were induced to be neutropenic via 3 intraperitoneal injections of cyclophosphamide ([…]) every another day. Immediately after the third administration of cyclophosphamide, the mice were challenged by intraperitoneal injection of Pseudomonas aeruginosa strain M2 (200-300 organisms/mouse). Cationic peptides (200 µg per mouse=8 mg/kg) in 100 µl buffered citrate were injected intraperitoneally at 30 min (single dose) or 30 min and 16 hrs (double dose) post bacterial challenge, respectively. The data were the average values of 2 individual experiments. PBS was used as a control. […] In general single dose protection studies gave better protection than double dose experiments.

[10] = Lethal endotoxemia in galactosamine-sensitized mice; format: in vivo, CD-1 mice; details: peptide 200 μg intraperitoneal within 10 min of 10 μg LPS; 24 hours post injection; 5 mice per group; no peptide 100
Method: To confirm this in vivo, endotoxic shock was induced by intraperitoneal injection of 10 μg of E.coli 0111:B4 LPS in phosphate-buffered saline (PBS; pH 7.2) into galactosamine-sensitized 8- to 10- week old female CD-1 mice (5 per group). In experiments involving peptides, 200 μg in 100 μl of sterile water was injected at separate intraperitoneal sites within 10 min of LPS injection. Survival was monitored at 24 hours post injection.

[11] = test system: mutant (Nal B, H744) of P. aeruginosa; assay: microbe, parasite or virus in culture; format: cell-based; details: for (B) MIC of Cipro when combined with peptide: ciprofloxacin with peptide at concentration (A); for (B) MIC of Cipro when combined with peptide / (A) Peptide doses together with Cipro: Nal B, H744; for MIC A MIC of Peptides: peptide alone, P. aeruginosa mutant Nal B, H744 (Table 5); for (A) Peptide doses together with Cipro: peptide concentration in combination with ciprofloxacin
Method: as §1
(§3) To test whether the peptides of the invention synergize with various antibiotics, the following method was employed. Fractional Inhibitory Concentration (FIC) was used to determine synergy of peptides combined with antibiotics (e.g., carbenicillin/ciprofloxacin) against Pseudomonas aeruginosa. The following methodology was followed:
(§4) (1) Determination of MIC of cationic peptides (MIC A):
(§5) 100 μl Mueller Hinton broth (MHB) was added per well
(§6) 12.5 μl of 10× test concentration peptide was added per well to get final peptide concentration of e.g., 128, 64, 32, . . . 0.025 μg/ml from row 1 to 11;
(§7) 10 μl of 10^−4 dilution of overnight bacterial culture was added per well.
(§8) (2) Determination of MIC of Carbenicillin/Ciprofloxacin (MIC B):
(§9) 100 μl MHB was added per well;
(§10) 100 μl of 2× test concentration of antibiotic was added in the first well of the row, and doubling dilutions performed across the plate from column 1 to 11;
(§11) (3) Determination of MIC of antibiotics (B) when combined with peptides at concentration A:
(§12) 100 μl Carbenicillin (512 μg/ml) or Ciprofloxacin (8 μg/ml) was added in each well of column 1; doubling dilutions were performed across the plate;
(§13) 100 μl of the peptide was added in all wells of row 1, mixed, and 100 μl withdrawn and added to row 2, etc., creating a checkerboard titration.
(§14) 10 μl of 10^−4 dilution of overnight culture was added per well;
(§15) plates were incubated at 37EC for 18-24 hours. Combination MIC values A and B were taken as the lowest concentration of drug that reduced bacterial growth by more than 50% in any given column.
(§16) (4) FIC index=FICA+FICB=(A)/MIC A+(B)/MIC B. An FIC index of approximately 0.5 or less indicates synergy; 1.0 reflects additivity; and >1.0 indicates antagonism.

[12] = test system: β-lactamase derepressed mutant (H547) of P. aeruginosa; assay: microbe, parasite or virus in culture; format: cell-based; details: P. aeruginosa H547; for (B) MIC of Carb when combined with peptide: Carbenicillin with peptide at concentration (A); for MIC A MIC of Peptides: peptide alone; for (A) Peptide doses together with Carb: peptide concentration in combination with Carbenicillin
Method: as §1, §3, §4, §5, §6, §7, §8, §9, §10, §11, §12, §13, §14, §15, §16

[13] = double dose (200 μg per mouse i.p. at 30 min and 16 hrs), 16 hr
[14] = single dose (200 μg per mouse i.p. at 30 min), 16 hr

For `CC[C@H](C)[C@H](NC(=O)CNC(=O)[C@@H](NC(=O)[C@H](CCCCN)NC(=O)[C@H](CCCCN)NC(=O)[C@H](Cc1ccccc1)NC(=O)[C@H](CCCCN)NC(=O)[C@H](Cc1c[nH]c2ccccc12)NC(=O)[C@@H](N)CCCCN)[C@@H](C)CC)C(=O)NCC(=O)N[C@@H](C)C(=O)N[C@H](C(=O)N[C@@H](CC(C)C)C(=O)N[C@@H](CCCCN)C(=O)N[C@H](C(=O)N[C@@H](CC(C)C)C(=O)N[C@@H](CCCCN)C(=O)N[C@H](C(=O)N[C@@H](CC(C)C)C(=O)N[C@H](C(=O)N[C@H](C(=O)NCC(=O)N[C@@H](CC(C)C)C(=O)N1CCC[C@H]1C(=O)N[C@@H](C)C(=O)N[C@@H](CC(C)C)C(=O)N[C@@H](CCCCN)C(=O)N[C@@H](CC(C)C)C(=O)N[C@H](C(=O)N[C@@H](CC(C)C)C(=O)N[C@@H](CCCCN)C(=O)O)[C@@H](C)O)[C@@H](C)O)[C@@H](C)O)C(C)C)C(C)C)C(C)C` [CM6], the “FIC for combination of cationic peptide and lysozyme” value (“FIC for combination” for short) [1] was 0.50, the “Lowest [CP] showing synergy” value [1] was 5.21 µg/mL and the “Lowest [Lyso] showing synergy” value [1] was 7.8 µg/mL. For the same molecule, the “FIC for combination” value [2] was 0.08, the “Lowest [CP] showing synergy” value [2] was 0.326 µg/mL and the “Lowest [Lyso] showing synergy” value [2] was 7.8 µg/mL. For the same molecule, the “FIC for combination” value [3] was 0.63, the “Lowest [CP] showing synergy” value [3] was 5.21 µg/mL and the “Lowest [Lyso] showing synergy” value [3] was 125 µg/mL. For the same molecule, the “MIC S. aureus” value [4] was 32 mg/L, the “MIC S. epidermis” value [5] was 8 mg/L and the “MIC P. aeruginosa” value [6] was 8 mg/L. For the same molecule, the “MIC S. aureus K147” value [7] was 32 mg/L, the “MIC E. coli” value [8] was 2 mg/L and the “Survival post bacterial challenge, surviving mice” value (“Survival post bacterial challenge” below) [9, 13] was 14. The “Survival post bacterial challenge” value ([9]; double dose, 24 hr) was 14, the “Survival post bacterial challenge” value ([9]; double dose, 41 hr) was 11 and the “Survival post bacterial challenge” value ([9]; double dose, 48 hr) was 9. The “Survival post bacterial challenge” value ([9]; double dose, 64 hr) was 6, the “Survival (%) post bacterial challenge” value ([9]; double dose, 64 hr) was 42% and the “Survival post bacterial challenge” value ([9]; double dose, 72 hr) was 6. The “Survival (%) post bacterial challenge” value ([9]; double dose, 72 hr) was 42%, the “Survival post bacterial challenge” value ([9]; double dose, 96 hr) was 5 and the “Survival (%) post bacterial challenge” value ([9]; double dose, 96 hr) was 35%. For the same molecule, the “Survival post bacterial challenge” value [9, 14] was 15, the “Survival post bacterial challenge” value ([9]; single dose, 24 hr) was 15 and the “Survival post bacterial challenge” value ([9]; single dose, 41 hr) was 13. For the same molecule, the “Survival post bacterial challenge” value ([9]; single dose, 48 hr) was 11, the “Survival post bacterial challenge” value ([9]; single dose, 64 hr) was 9 and the “Survival (%) post bacterial challenge” value ([9]; single dose, 64 hr) was 60%. The “Survival post bacterial challenge” value ([9]; single dose, 72 hr) was 9, the “Survival (%) post bacterial challenge” value ([9]; single dose, 72 hr) was 60% and the “Survival post bacterial challenge” value ([9]; single dose, 96 hr) was 7. The “Survival (%) post bacterial challenge” value ([9]; single dose, 96 hr) was 46%, the “Mortality (%)” value [10] was 100% and the “(B) MIC of Cipro when combined with peptide” value [11] was “.125 mg/L”. For the same molecule, the “MIC A MIC of Peptides” value [11] was 1 mg/L, the “(A) Peptide doses together with Cipro” value [11] was 1 µg/mL and the “(B) MIC of Carb when combined with peptide” value [12] was 64 mg/L. The “MIC A MIC of Peptides” value [12] was 2 mg/L and the “(A) Peptide doses together with Carb” value [12] was 1 µg/mL.

With KWKSFIKKLTKAAKKVVTTAKKPLIV [CM2] the “FIC for combination” value [1] was 0.53, the “Lowest [CP] showing synergy” value [1] was 2.61 µg/mL and the “Lowest [Lyso] showing synergy” value [1] was 31.3 µg/mL. For the same molecule, the “FIC for combination” value [2] was 0.25, the “Lowest [CP] showing synergy” value [2] was 0.081 µg/mL and the “Lowest [Lyso] showing synergy” value [2] was 7.8 µg/mL. For the same molecule, the “FIC for combination” value [3] was 0.37, the “Lowest [CP] showing synergy” value [3] was 1.3 µg/mL and the “Lowest [Lyso] showing synergy” value [3] was 7.8 µg/mL. The “MIC S. aureus” value [4] was greater than 64 mg/L, the “MIC S. epidermis” value [5] was 5 mg/L and the “MIC P. aeruginosa” value [6] was 3 mg/L. The “MIC S. aureus K147” value [7] was greater than 64 mg/L, the “MIC E. coli” value [8] was 1 mg/L and the “Survival post bacterial challenge” value [9, 13] was 14. The “Survival post bacterial challenge” value ([9]; double dose, 24 hr) was 14, the “Survival post bacterial challenge” value ([9]; double dose, 41 hr) was 10 and the “Survival post bacterial challenge” value ([9]; double dose, 48 hr) was 7. For the same molecule, the “Survival post bacterial challenge” value ([9]; double dose, 64 hr) was 7, the “Survival (%) post bacterial challenge” value ([9]; double dose, 64 hr) was 50% and the “Survival post bacterial challenge” value ([9]; double dose, 72 hr) was 7. The “Survival (%) post bacterial challenge” value ([9]; double dose, 72 hr) was 50%, the “Survival post bacterial challenge” value ([9]; double dose, 96 hr) was 6 and the “Survival (%) post bacterial challenge” value ([9]; double dose, 96 hr) was 42%. For the same molecule, the “Survival post bacterial challenge” value [9, 14] was 15, the “Survival post bacterial challenge” value ([9]; single dose, 24 hr) was 15 and the “Survival post bacterial challenge” value ([9]; single dose, 41 hr) was 13. For the same molecule, the “Survival post bacterial challenge” value ([9]; single dose, 48 hr) was 12, the “Survival post bacterial challenge” value ([9]; single dose, 64 hr) was 11 and the “Survival (%) post bacterial challenge” value ([9]; single dose, 64 hr) was 73%. For the same molecule, the “Survival post bacterial challenge” value ([9]; single dose, 72 hr) was 11, the “Survival (%) post bacterial challenge” value ([9]; single dose, 72 hr) was 73% and the “Survival post bacterial challenge” value ([9]; single dose, 96 hr) was 10. The “Survival (%) post bacterial challenge” value ([9]; single dose, 96 hr) was 66%, the “Mortality (%)” value [10] was 80% and the “(B) MIC of Cipro when combined with peptide” value [11] was “.25 mg/L”. The “MIC A MIC of Peptides” value [11] was 1 mg/L, the “(A) Peptide doses together with Cipro” value [11] was “.5 µg/mL” and the “(B) MIC of Carb when combined with peptide” value [12] was 64 mg/L. For the same molecule, the “MIC A MIC of Peptides” value [12] was 4 mg/L and the “(A) Peptide doses together with Carb” value [12] was “.5 µg/mL”.

Source: US6818407B2, “Anti-endotoxic antimicrobial cationic peptides and methods of use therfor” (priority 1998, dated 2004)
